Reference: paper PMC11558679, “Artificial Zymogen Based on Protein–Polymer Hybrids” (Biomacromolecules, 2024)
Where “and” joins values, the source holds several entries; their conditions need not be identical. Equal values may be shown once. Read-outs that look alike come from different tables or passages of the source. Blank lines part the entries; values can stand above or below the molecule they belong to. Square brackets hold non-standard residues; d marks the D form. Peptide text beside a SMILES is read from it. * marks the point of attachment. OEGMA = oligo(ethylene glycol) methacrylate; PEG4 = NCCOCCOCCOCCOCCC(=O)O; Tos = Cc1ccc(S(=O)(=O)*)cc1; Isobutyryl = CC(C)C(=O)*; NHBn = c1ccc(CN*)cc1; Sar = CNCC(=O)O

Experiments:
Format in all cases: biochemical, bovine
native chymotrypsin = target: T1, native chymotrypsin (Bos taurus, UniProt P00766); assay: Inhibition of native chymotrypsin by model peptide inhibitor and macromonomer; details: for KM/Vmax / apparent Vmax / kcat / kcat/KM / Km: [sucAAPFpNA]0 = 0–768 µM; for Km: read-out: apparent KM
T1 construct: α-Chymotrypsin from bovine pancreas, Type II (CT); purchased Sigma-Aldrich; host or cells: bovine pancreas
From the text: (§1) Co mparison of K M of peptide substrates and K i of model peptide inhibitors and ma cro mono mers against native trypsin and chymotrypsin.
(§2) By observing the initial rate of enzyme activity in the presence of th e peptide inhibitor or macromonomer, the K i value of the inhibitor peptide and macromonomers can be determined (Figures S9 for native trypsin,and S14 for native ch ymotrypsin). The apparent KM and Vmax values are obtained b y si multaneousl y mixing nat ive trypsin or ch ymotr ypsin, a peptide substrat e, and a peptide inhibitor, and then monitoring the pNA produced b y enzymatically catal yzed hydrol ysis of the p eptide substrate. The apparent KM and Vmax values were calculated using EnzFitter with Michaelis-Menten curve fitting of substrate against initial velocity plots ( Fi g u re S10 and S12 and Table S1 and S2 for native trypsin, and Figure S15 and S17 and T ab l e S3 and S4 for native ch ymotr ypsin ). The plot of K M ass/Vma x app versus [I]0 or [macromonomers]0 yields a straight line with a y-intercept of K M/Vmax and a slope of K M/(Vmax ·Ki) (Figures S11 and S13 for native tr ypsin and S1 6 and S18 for native ch ymotrypsin, respsctiver y ). The inhibition constant (Ki) of the peptide inhibi tor or macromonomer was calculated b y simply dividing the y -inter cept […]
Figure S1 5 .Michaelis -Menten Plots adding a peptide inhibitor to a native c hymot r yps i n s ol ut i on.
Table S3. Apparent KM a nd Vma x values for native […] incubated with suc-AAPF -pNA ( subst r at e) and IB -AAPFSar-OMe (inhibitor) at 37 °C in 100 mM sodium phosphate buffer (pH 8.0) […]
Buffer: 100 mM sodium phosphate (pH 8.0) at 37 °C, [CT]0 = 40 nM, [sucAAPFpNA]0 = 0 – 768 µ M and [IBAAPFSarOMe]0 = 0 – 500 µM, Monitor Abs at 412 nm.
Table S4. Apparent KM a nd Vma x values for native […] incubated with suc-AAPF -pNA ( subst r at e) and macromonomer containing a TR cleavable and CT inhibiting peptides
(IBAAPFSarPEG4GPRGGOEGMA) at 37 °C in 100 mM sodium phosphate buffer (pH 8.0) . […]
macro mono mer]0 = 0 – 400 µM, Monitor Abs at 412 nm.
Figure S18. Michaelis -Menten Plots adding a macromonomer containing a TR cleavable and CT inhibiting peptides (IBAAPFSarPEG4GPRGGOEGMA) to a native chymotrypsin solution.

[1] = Biocatalytic assay (Michaelis–Menten) of TR and TR hybrids with Tos-Gly-Pro-Arg-pNA
Experimental: N-Tosyl-L-Gly-L-Pro-L-Arg-p-nitroanilide was used as a substrate for enzyme bioactivity assays. In a cuvette, 0.1 M Tris HCl and 20 mM calcium chloride buffer (890–990 μL, pH 8.0), substrate (0–100 μL, 2 mg/mL in DMSO), and enzyme (10 μL, 0.02 mg TR/mL in 100 mM Tris–HCl and 20 mM calcium chloride (pH 8.0), 8.4 nM as final concentration) were mixed for enzyme bioactivity assays. The rate of hydrolysis was determined by recording the increase in absorbance at 412 nm for the first 45 s after mixing. KM and kcat values were calculated using Enzfitter software when plotting substrate concentration versus initial hydrolysis velocity. […]
Table S5. Char acterization and enzymatic activity of TR-pCBMA and inhibited pro- T R pol ymer h ybr i ds with different linkers between the inhibitory and cleavable peptide moieties.
SEC-M ALLS anal ysi s Michaelis-Menten parameters d
Mnb Mwb Đb DPc KM kcat kcat/KM samples kg mol-1 kg mol-1 (CBM A/inhibitor) (µM) (s-1) (µM-1 s-1) […]
SEC -MALLS and 1H NMR spectra. d conditions: [TR]0 = 8.4 nM, [Tos-GPR-pNA]0 = 0 - 302 µM, buffer 100 mM Tris-HCl and 20 mM CaCl2 (pH 8.0) at 37 °C. […]

native trypsin = target: T2, native trypsin (Bos taurus, UniProt P00760); assay: Inhibition of native trypsin by model peptide inhibitor and macromonomer; details: for Ki: substrate Tos-GPR-pNA, 100 mM Tris-HCl and 20 mM CaCl2 (pH 8.0), 37 °C, [TR]0 = 8.4 nM, from secondary plot KM/Vmax app vs [I]0; for Km: read-out: apparent KM
T2 construct: purchased Sigma-Aldrich; host or cells: bovine pancreas
T2 sequence (P00760 24-246): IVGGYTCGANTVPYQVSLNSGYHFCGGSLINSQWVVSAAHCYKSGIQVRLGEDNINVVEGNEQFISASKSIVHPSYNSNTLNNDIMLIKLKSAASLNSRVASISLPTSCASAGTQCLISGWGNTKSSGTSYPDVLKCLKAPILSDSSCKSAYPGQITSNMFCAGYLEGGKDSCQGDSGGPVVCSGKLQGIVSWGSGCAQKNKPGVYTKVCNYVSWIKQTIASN
From the text: as §1, §2
(1 picture or pasted object on this page, not shown here)
Table S1. Apparent KM a nd Vma x values for native trypsin incubated with Tos-GPR-pNA (substrate) and Tos-GPRP -NHBzl (inhibitor) at 37 °C in 100 mM Tris-HCl and 20 mM CaCl2 buffer (pH 8.0) […]
Buffer: 100 mM Tris-H Cl a nd 20 mM Ca Cl2 (pH 8.0) at 37 °C, [TR]0 = 8.4 nM, [TosGPRpNA]0 = 0 – 302 µ M a nd [TosGP RP Bzl]0 = 0 – 500 µM, Monitor Abs at 412 nm.
Figure S11. Secondary plot with calculated apparent K M and Vmax values were used to determine inhibition constants of the peptide inhibitor towards native trypsin.
Figure S12. Michaelis-Menten Plots adding a the macromonomer containing a CT -cleavable and a TR-inhibiting peptides (T o s GPRPr o -PEG4-AAPFAA OE GMA) to a native trypsin solution.
Table S2. Apparent KM a nd Vma x values for native trypsin incubated with Tos-GPR-pNA (substrate) and the macromonomer containing a CT -cleavable and a TR-inhibiting peptides (TosGPRPro-PEG4-AAPFAA OEGMA) at 37 °C in 100 mM Tris -HCl and 20 mM CaCl2 buffer (pH 8.0) .
Buffer: 100 mM Tris-H Cl a nd 20 mM Ca Cl2 (pH 8.0) at 37 °C, [TR]0 = 8.4 nM, [TosGPRpNA]0 = 0 – 241 µ M a nd [ macro mono mer]0 = 0 – 200 µM, Monitor Abs at 412 nm.

[2] = [macromonomer]0 = 50 µM, [TosGPRpNA]0 = 0–241 µM
[3] = [macromonomer]0 = 100 µM, [TosGPRpNA]0 = 0–241 µM
[4] = [macromonomer]0 = 150 µM, [TosGPRpNA]0 = 0–241 µM
[5] = [macromonomer]0 = 200 µM, [TosGPRpNA]0 = 0–241 µM
[6] = [TR]0 = 8.4 nM, [Tos-GPR-pNA]0 = 0–302 μM, 100 mM Tris–HCl and 20 mM CaCl2 (pH 8.0), 37 °C, absorbance 412 nm, first 45 s, Enzfitter

Molecule: IB-Ala-Ala-Pro-Phe-Sar-PEG4-Gly-Pro-Arg-Gly-Gly-OEGMA [IBAAPFSarPEG4GPRGGOEGMA]
KM/Vmax (native chymotrypsin; [macromonomer]0 = 100 µM): 61.8 ± 6.2 s
apparent Vmax (native chymotrypsin; [macromonomer]0 = 100 µM): 1.25 ± 0.03 µM/s
kcat (native chymotrypsin; [macromonomer]0 = 100 µM): 34.8 ± 0.8 s⁻¹
kcat/KM (native chymotrypsin; [macromonomer]0 = 100 µM): 450000 ± 50000 M⁻¹ s⁻¹
Km (native chymotrypsin; [macromonomer]0 = 100 µM): 77.5 ± 7.6 µM
KM/Vmax (native chymotrypsin; [macromonomer]0 = 200 µM): 65.3 ± 6.9 s
apparent Vmax (native chymotrypsin; [macromonomer]0 = 200 µM): 1.25 ± 0.03 µM/s
kcat (native chymotrypsin; [macromonomer]0 = 200 µM): 34.9 ± 0.8 s⁻¹
kcat/KM (native chymotrypsin; [macromonomer]0 = 200 µM): 430000 ± 40000 M⁻¹ s⁻¹
Km (native chymotrypsin; [macromonomer]0 = 200 µM): 82.1 ± 8.4 µM
KM/Vmax (native chymotrypsin; [macromonomer]0 = 300 µM): 72.9 ± 7.1 s
apparent Vmax (native chymotrypsin; [macromonomer]0 = 300 µM): 1.18 ± 0.03 µM/s
kcat (native chymotrypsin; [macromonomer]0 = 300 µM): 32.8 ± 0.7 s⁻¹
kcat/KM (native chymotrypsin; [macromonomer]0 = 300 µM): 380000 ± 730000 M⁻¹ s⁻¹
Km (native chymotrypsin; [macromonomer]0 = 300 µM): 86.1 ± 8.1 µM
KM/Vmax (native chymotrypsin; [macromonomer]0 = 400 µM): 89.4 ± 11.8 s
apparent Vmax (native chymotrypsin; [macromonomer]0 = 400 µM): 1.12 ± 0.04 µM/s
kcat (native chymotrypsin; [macromonomer]0 = 400 µM): 31.0 ± 1.0 s⁻¹
kcat/KM (native chymotrypsin; [macromonomer]0 = 400 µM): 310000 ± 40000 M⁻¹ s⁻¹
Km (native chymotrypsin; [macromonomer]0 = 400 µM): 99.7 ± 12.6 µM
Ki relative to KM (90 μM) of suc-Ala-Ala-Pro-Phe-pNA (native chymotrypsin; native CT): 2.8 fold
Ki (native chymotrypsin; native CT, substrate suc-AAPF-pNA, 100 mM sodium phosphate (pH 8.0), 37 °C, [CT]0 = 40 nM, from secondary plot KM/Vmax app vs [I]0, read-out: Ki): 260 µM

Molecule: N-Tosyl-glycyl-L-prolyl-L-arginine p-nitroanilide acetate salt [Tos-Gly-Pro-Arg-pNA, reference compound]
Km ([1]; rounded value in comparison with Ki, read-out: KM of the peptide substrate for native TR): 20 µM

Ki (native trypsin; native TR): 150 µM
Molecule: Tos-Gly-Pro-Arg-Pro-PEG4-Ala-Ala-Pro-Phe-Ala-Ala-OEGMA (Tos-GPRP[PEG4]AAPFAA-{OEGMA}) [TosGPRPro-PEG4-AAPFAA OEGMA]

KM/Vmax (native trypsin; [inhibitor]0 = 125 µM, [TosGPRpNA]0 = 0–302 µM): 48.3 ± 4.1 s
KM/Vmax (native trypsin; [inhibitor]0 = 250 µM, [TosGPRpNA]0 = 0–302 µM): 56.3 ± 5.0 s
KM/Vmax (native trypsin; [inhibitor]0 = 375 µM, [TosGPRpNA]0 = 0–302 µM): 73.4 ± 3.7 s
KM/Vmax (native trypsin; [inhibitor]0 = 500 µM, [TosGPRpNA]0 = 0–302 µM): 84.3 ± 6.0 s
Ki (native trypsin; native TR): 430 µM
Molecule: Cc1ccc(S(=O)(=O)NCC(=O)N2CCC[C@H]2C(=O)N[C@@H](CCCNC(=N)N)C(=O)N2CCC[C@H]2C(=O)NCc2ccccc2)cc1 [Tos-Gly-Pro-Arg-Pro-NHBzl] (Tos-GPRP-NHBn)

Molecule: Tos-Gly-Pro-Arg-Pro-PEG4-Ala-Ala-Pro-Phe-Ala-Ala-OEGMA [TosGPRPro-PEG4-AAPFAA OEGMA]
KM/Vmax (native trypsin; [2]): 62.9 ± 7.3 s
apparent Vmax (native trypsin; [2]): 0.45 ± 0.02 µM/s
kcat (native trypsin; [2]): 53.4 ± 2.3 s⁻¹
kcat/KM (native trypsin; [2]): 1.89e+06 ± 310000 M⁻¹ s⁻¹
Km (native trypsin; [2]): 28.2 ± 4.5 µM
KM/Vmax (native trypsin; [3]): 77.9 ± 6.3 s
apparent Vmax (native trypsin; [3]): 0.24 ± 0.01 µM/s
kcat (native trypsin; [3]): 28.7 ± 0.7 s⁻¹
kcat/KM (native trypsin; [3]): 1.53e+06 ± 170000 M⁻¹ s⁻¹
Km (native trypsin; [3]): 18.8 ± 2.1 µM
KM/Vmax (native trypsin; [4]): 86.3 ± 7.8 s
apparent Vmax (native trypsin; [4]): 0.31 ± 0.01 µM/s
kcat (native trypsin; [4]): 36.5 ± 1.4 s⁻¹
kcat/KM (native trypsin; [4]): 1.38e+06 ± 180000 M⁻¹ s⁻¹
Km (native trypsin; [4]): 26.4 ± 3.2 µM
KM/Vmax (native trypsin; [5]): 97.7 ± 12.1 s
apparent Vmax (native trypsin; [5]): 0.36 ± 0.02 µM/s
kcat (native trypsin; [5]): 43.3 ± 2.1 s⁻¹
kcat/KM (native trypsin; [5]): 1.22e+06 ± 210000 M⁻¹ s⁻¹
Km (native trypsin; [5]): 35.5 ± 6 µM
Ki relative to KM (20 μM) of Tos-Gly-Pro-Arg-pNA (native trypsin; native TR): ~7.5 fold

Ki (native chymotrypsin): 660 µM
KM/Vmax (native chymotrypsin; [inhibitor]0 = 125 µM): 62.9 ± 6.8 s
KM/Vmax (native chymotrypsin; [inhibitor]0 = 250 µM): 75.9 ± 11.5 s
KM/Vmax (native chymotrypsin; [inhibitor]0 = 375 µM): 84.8 ± 12.7 s
KM/Vmax (native chymotrypsin; [inhibitor]0 = 500 µM): 99.6 ± 11.7 s
Molecule: COC(=O)CN(C)C(=O)[C@H](Cc1ccccc1)NC(=O)[C@@H]1CCCN1C(=O)[C@H](C)NC(=O)[C@H](C)NC(=O)C(C)C [isobutyryl-Ala-Ala-Pro-Phe-Sar-OMe] (Isobutyryl-AAPF[Sar]-OMe)

B1: trypsin from bovine pancreas, Type I (protein, UniProt P00760 24-246, looked up)
Serine protease 1: IVGGYTCGANTVPYQVSLNSGYHFCGGSLINSQWVVSAAHCYKSGIQVRLGEDNINVVEGNEQFISASKSIVHPSYNSNTLNNDIMLIKLKSAASLNSRVASISLPTSCASAGTQCLISGWGNTKSSGTSYPDVLKCLKAPILSDSSCKSAYPGQITSNMFCAGYLEGGKDSCQGDSGGPVVCSGKLQGIVSWGSGCAQKNKPGVYTKVCNYVSWIKQTIASN
notes: trypsin from bovine pancreas, Type I (TR), Sigma-Aldrich
kcat [1, 6]: 63.5 s^–1 and 63.5 ± 1.3 s^–1
kcat/KM [1, 6]: 2.87 ± 0.25 μM^–1 s^–1
Km ([1]; [TR]0 = 8.4 nM, [Tos-GPR-pNA]0 = 0–302 μM, 100 mM Tris–HCl and 20 mM CaCl2 (pH 8.0), 37 °C, absorbance 412 nm, first 45 s, Enzfitter, read-out: KM): 22.2 ± 1.9 µM
